Source: US20260263433A1, “TETRAZOLIUM AND FORMAZAN COMPOUNDS AND METHODS OF MAKING AND USING THE SAME” (ARIZONA BOARD OF REGENTS ON BEHALF OF THE UNIVERSITY OF …, priority 2022, published 2026)

Legend:
MRC-5 (Normal lung) = assay: Antiproliferative activity, resazurin readout, MRC-5 normal lung fibroblasts; type: cell-based, human; details: 72 h incubation, 0.032-100 μM, mean ± SDM, n = 3
Experimental: (§1) Once the stability data and the information on the reduction and iron binding of the new cohort of tetrazolium salts had been obtained, the antiproliferative activity of the new cohort was assessed in a panel of mammalian cell lines. Cancer cells require more iron than normal cells in order to sustain fast proliferation rate. Therefore, compounds that interfere with intracellular iron availability display antiproliferative activity.^12 Indeed iron chelation and prochelation strategies could provide new therapeutic avenues in anticancer drug discovery.^4
(§2) Cancer cell lines of different origin were selected (ovarian A2780, breast MDAMB-231, colon Caco-2, and lung A549), and a normal cell line (MRC-5, lung fibroblasts) was selected as a comparison.
(§3) Because the colorimetric MTT reagent is one of the compounds being tested in this panel, the reduction of resazurin to brightly fluorescent resorufin was chosen as a readout for the assessment of antiproliferative activity.

MDA-MB-231 (Breast) = assay: Antiproliferative activity, resazurin readout, MDA-MB-231; type: cell-based, human; details: 72 h incubation, 0.032-100 μM, mean ± SDM, n = 3
Experimental: as §1, §2, §3

A2780 (Ovary) = assay: Antiproliferative activity, resazurin readout, A2780; type: cell-based, human; details: for IC50: 72 h incubation, 0.032-100 μM, mean ± SDM, n = 3
Experimental: as §1, §2, §3

[1] = test system: panel of mammalian cell lines; assay: Antiproliferative activity across the panel of cell lines; type: cell-based, human; details: 72 h, tested cell lines
Experimental: as §1, §2, §3

[2] = Reduction of tetrazolium salts by cyclic voltammetry in buffered aqueous solution; type: physicochemical; details: 50 mM PBS pH 7.4, 25° C., K3[Fe(CN)6] reference, irreversible reduction
Experimental: The reduction of all the tetrazolium salts was investigated by cyclic voltammetry in buffered aqueous solutions (50 mM phosphate buffered saline solution, pH 7.4, K3[Fe(CN)6] as reference E0=0.430 V vs. NHE, 25° C.). Each compound presents an irreversible reduction at a potential that varies considerably depending on the identity of the aryl substituents on the tetrazolium core. Although the peaks are rather broad and likely susceptible to shifts depending on the specific experimental conditions, the peak potentials (Table 1, referenced to NHE) of some of these tetrazolium compounds indicate that they are reduced outside the biologically relevant window. […] On the other hand, the fact that the tetrazolium compounds are harder to reduce relative to MTT (with the exception of the benzothiazole derivative 1b) makes them well suited for intracellular activation in the reducing microenvironment of malignant cells. Compounds 2b, 4b, 6b and 7b are likely to be reduced intracellularly to the formazan species.

Caco-2 (Colon) = assay: Antiproliferative activity, resazurin readout, Caco-2; type: cell-based, human; details: 72 h incubation, 0.032-100 μM, mean ± SDM, n = 3
Experimental: as §1, §2, §3

A549 (Lung) = assay: Antiproliferative activity, resazurin readout, A549; type: cell-based, human; details: 72 h incubation, 0.032-100 μM, mean ± SDM, n = 3
Experimental: as §1, §2, §3

[3] = test system: A2780 ovarian cancer cells; assay: Effect of iron supplementation on toxicity, LIVE/DEAD stain, flow cytometry; type: cell-based, human; details: compounds 40 μM with or without ferric ammonium citrate 50 μM or holo-transferrin 50 μM, 48 h
Experimental: FIGS. 6A-6B depict the effects of iron supplementation on toxicity in A2780 ovarian cancer cells. The percentage of dead cells was determined using the LIVE/DEAD fixable stain as measured by flow cytometry. FIG. 6A depicts the quantification of dead cells after treating in the presence of test compounds (40 μM) with or without ferric ammonium citrate (FAC, 50 μM) for 48 h. FIG. 6B depicts the quantification of dead cells after treating in the presence of test compounds (40 μM) with or without holo-transferrin (holo-TF, 50 μM) for 48 h. Experiments were conducted in triplicate and the values shown are averages ±standard deviation. **p<0.01, ***p<0.001, ****p<0.0001.
The biological activity of the tetrazolium and formazan compounds was investigated in A2780 cells, in which they presented the highest antiproliferative activity. In particular, experiments were performed to confirm that the antiproliferative activity of these compounds is associated with the availability of intracellular iron.

[4] = Fe(II) coordination in buffered aqueous solution (optical absorption changes); type: physicochemical; details: absorption 500-800 nm
Experimental: These two compounds were retained in the experiments as controls.
The tetrazolium salts (FIGS. 4A-4B) were synthesized from the formazans by the process outlined in FIG. 4C, which included oxidation with N-bromo-succinimide. For structures featuring a 2-hydroxyphenyl group, the oxidation was carried out on methoxyphenyl precursors and followed by a demethylation step in the presence of BBr3. The tetrazolium compounds were isolated as bromide salts.

[5] = Stability in fetal bovine serum monitored by HPLC; type: in vitro ADME; details: 24 h
Experimental: FIGS. 5A and 5B depict the assessment of stability of the tetrazolium-based prochelators in fetal bovine serum (FBS) for a period of 24 h.
The stability of exemplary tetrazolium compounds was tested in fetal bovine serum and monitored by HPLC analysis.

| IC50 (MDA-MB-231 (Breast)) [µM] | IC50 (A2780 (Ovary)) [µM] | SMILES | IC50 (MRC-5 (Normal lung)) [µM] | Antiproliferative activity / toxicity in the cell panel, in words [1] | Ered vs. NHE (peak potential Ep) [2] [mV] | IC50 (Caco-2 (Colon)) [µM] | IC50 (A549 (Lung)) [µM] | also measured |
| --- | --- | --- | --- | --- | --- | --- | --- | --- |
| 22 ± 3 | 9 ± 2 | c1ccc(NN=C(N=Nc2cnc3ccccc3n2)c2ccccc2)cc1 [QXF] | 11 ± 2 | sub-micromolar or low-micromolar | – | – | – | – |
| – | 0.5 ± 0.1 | [Br-].c1ccc(-c2nn(-c3nccc4ccccc34)[n+](-c3ccccc3)n2)cc1 [IQT] | 14 ± 2 | – | – | – | – | IC50 values in A2780 cell lines, in words (A2780 (Ovary)): sub-micromolar |
| 0.3 ± 0.1 | 0.8 ± 0.1 | [Br-].c1ccc(-c2nn(-c3ccc4ccccc4n3)[n+](-c3ccccc3)n2)cc1 [QT] | 3.5 ± 0.8 | – | – | – | – | IC50 values in A2780 cell lines, in words (A2780 (Ovary)): sub-micromolar |
| > 100 | 74 ± 7 | Oc1ccccc1-c1nn(-c2ccccc2)[n+](-c2ccccc2)n1.[Br-] [7b] | > 100 | low toxicity | −187 | > 100 | > 100 | – |
| 7 ± 2 | 14 ± 2 | c1ccc(NN=C(N=Nc2ccc3ccccc3n2)c2ccccc2)cc1 [QF] | 89 ± 9 | sub-micromolar or low-micromolar | – | – | – | – |
| 1.4 ± 0.5 | 0.7 ± 0.1 | c1ccc(NN=C(N=Nc2nccc3ccccc23)c2ccccc2)cc1 [IQF] | – | sub-micromolar or low-micromolar | – | – | – | – |
| 1.8 ± 0.5 | 0.6 ± 0.1 | c1ccc(NN=C(N=Nc2ncc3ccccc3n2)c2ccccc2)cc1 [QZF] | 4.2 ± 0.3 | sub-micromolar or low-micromolar | – | – | – | – |
| 26 ± 3 | 19 ± 2 | c1ccc(-c2nn(-c3cnc4ccccc4n3)[n+](-c3ccccc3)n2)cc1 [QXT] | 45 ± 8 | – | – | – | – | – |

The next lines start with the molecule.

| SMILES | IC50 (MDA-MB-231 (Breast)) [µM] | IC50 (A2780 (Ovary)) [µM] | IC50 (MRC-5 (Normal lung)) [µM] | Antiproliferative activity / toxicity in the cell panel, in words [1] | Ered vs. NHE (peak potential Ep) [2] [mV] | IC50 (Caco-2 (Colon)) [µM] | IC50 (A549 (Lung)) [µM] | also measured |
| --- | --- | --- | --- | --- | --- | --- | --- | --- |
| [Br-].c1ccc(-c2nn(-c3ccccn3)[n+](-c3ccccc3)n2)cc1 [2b] | 16 ± 2 | 16 ± 3 | > 100 | promising antiproliferative activities | −130 | 13 ± 2 | 17 ± 2 | Effect of iron supplementation on cell death [3]: could be rescued by iron supplementation |
| Oc1ccccc1C(N=Nc1ccccc1)=NNc1ccccc1 [7a] | – | – | – | – | – | – | – | Iron binding [4]: did not show any indication of iron binding |
| Oc1ccccc1-c1nn(-c2ccccn2)[n+](-c2ccccc2)n1.[Br-] [4b] | 17 ± 2 | 12 ± 3 | > 100 | promising antiproliferative activities | −102 | 29 ± 3 | 28 ± 4 | Effect of iron supplementation on cell death [3]: could be rescued by iron supplementation |
| Oc1ccccc1-n1nc(-c2ccccn2)n[n+]1-c1ccccc1.[Br-] [5b] | > 100 | 90 ± 10 | > 100 | low cytotoxicity | −380 | > 100 | > 100 | – |
| [Br-].c1ccc(-c2nn(-c3nc4ccccc4s3)[n+](-c3ccccc3)n2)cc1 [1b] | 21 ± 2 | 23 ± 3 | 97 ± 10 | moderate antiproliferative activities | 207 | 40 ± 3 | 41 ± 3 | Stability in serum [5]: significant degradation |
| c1ccc(N=NC(=NNc2ccccc2)c2ccccn2)cc1 [6a] | – | – | – | – | – | – | – | Iron binding [4]: did not show any indication of iron binding |
| O=C(O)c1ccc(-n2nc(-c3ccccc3O)nc2-c2ccccc2O)cc1 [DFX, deferasirox, reference compound] | – | – | – | – | – | – | – | IC50 (MRC-5 (Normal lung); Homo sapiens, MRC5): > 100 µM; IC50 (MDA-MB-231 (Breast); Homo sapiens, MDA-MB-231): 17 ± 1 µM; IC50 (Caco-2 (Colon); Homo sapiens, Caco-2): 67 ± 2 µM; IC50 (A549 (Lung); Homo sapiens, A549): 21 ± 3 µM; IC50 (A2780 (Ovary); Homo sapiens, A2780): 15 ± 0.5 µM |
| Cc1nc(N=NC(=NNc2ccccc2)c2ccccc2)sc1C [MTF, reference compound] | – | – | – | – | – | – | – | Iron binding [4]: coordinate Fe(II) |
| [Br-].c1ccc(-n2nc(-c3ccccn3)n[n+]2-c2ccccc2)cc1 [6b] | > 100 | 74 ± 4 | > 100 | low toxicity | −241 | > 100 | > 100 | Effect of iron supplementation on cell death [3]: not altered by iron supplementation |
| Oc1ccccc1-n1nc(-c2ccccc2)n[n+]1-c1ccccc1.[Br-] [3b] | > 100 | > 100 | > 100 | low cytotoxicity | −328 | > 100 | > 100 | – |
| Cc1nc(-[n+]2nc(-c3ccccc3)nn2-c2ccccc2)sc1C.[Br-] [MTT, reference compound] | 48 ± 7 | 45 ± 9 | 32 ± 5 | moderate antiproliferative activities | 94 | 92 ± 7 | 44 ± 9 | Stability in serum [5]: significant degradation |
